This passage reports inhibition results from PMC11576293, “New series of 4,6-diaryl pyrimidines: facile synthesis and antiproliferative activity as dual EGFR/VEGFR-2 inhibitors” (Frontiers in Chemistry, 2024).

The test system of one test is BT-549. Description: NCI-60 single-dose screen. Format: cell-based. To be noted: Homo sapiens, single dose 10 µM, '-' = no inhibition, read-out: % Growth Inhibition. In short, it runs like this: (§1)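 NCI Developmental Therapeutics Program screen across 60 human cancer cell lines from nine tumor types; compounds tested at a single dose of 10 μM.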
Take `COc1ccc(-c2cc(-c3ccc(Cl)cc3)nc(SC)n2)cc1OC` [Compound 23, 4-(4-Chlorophenyl)-6-(3,4-dimethoxyphenyl)-2-(methylthio)pyrimidine]: the inhibition at 10 µM was 4.8%.

The test system of the next test is COLO 205. Description: NCI-60 single-dose screen. It is filed as cell-based. Conditions: Homo sapiens, single dose 10 µM, '-' = no inhibition, read-out: % Growth Inhibition. In short, it runs like this: as §1
Take `COc1ccc(-c2cc(-c3ccc(Cl)cc3)nc(SC)n2)cc1OC` [Compound 23, 4-(4-Chlorophenyl)-6-(3,4-dimethoxyphenyl)-2-(methylthio)pyrimidine]: the inhibition at 10 µM worked out at 8.14%.

The next test relates to U251. Description: NCI-60 single-dose screen. Format: cell-based. To be noted: Homo sapiens, U-251, single dose 10 µM, '-' = no inhibition, read-out: % Growth Inhibition. The method, boiled down: as §1
`COc1ccc(-c2cc(-c3ccc(Cl)cc3)nc(SC)n2)cc1OC` [Compound 23, 4-(4-Chlorophenyl)-6-(3,4-dimethoxyphenyl)-2-(methylthio)pyrimidine]: the inhibition at 10 µM was found to be 11.6%.

For another test, the system named is HOP-62. Put plainly: NCI-60 single-dose screen. It is filed as cell-based. To be noted: Homo sapiens, single dose 10 µM, '-' = no inhibition, read-out: % Growth Inhibition. In short, it runs like this:
as §1
Regarding `COc1ccc(-c2cc(-c3ccc(Cl)cc3)nc(SC)n2)cc1OC` [Compound 23, 4-(4-Chlorophenyl)-6-(3,4-dimethoxyphenyl)-2-(methylthio)pyrimidine], the inhibition at 10 µM is under 0%.

Another test deals with OVCAR-4. Description: NCI-60 single-dose screen. To be noted: Homo sapiens, single dose 10 µM, '-' = no inhibition, read-out: % Growth Inhibition. It is filed as cell-based. The method, boiled down:
as §1
On to `COc1ccc(-c2cc(-c3ccc(Cl)cc3)nc(SC)n2)cc1OC` [Compound 23, 4-(4-Chlorophenyl)-6-(3,4-dimethoxyphenyl)-2-(methylthio)pyrimidine], for which the inhibition at 10 µM worked out at 27.5%.

A further test deals with A498. Description: NCI-60 single-dose screen. Conditions: Homo sapiens, single dose 10 µM, '-' = no inhibition, read-out: % Growth Inhibition. Format: cell-based. In short, it runs like this: as §1
For the compound `COc1ccc(-c2cc(-c3ccc(Cl)cc3)nc(SC)n2)cc1OC` [Compound 23, 4-(4-Chlorophenyl)-6-(3,4-dimethoxyphenyl)-2-(methylthio)pyrimidine], the inhibition at 10 µM is under 0%.

The next test deals with NCI-H522. Put plainly: NCI-60 single-dose screen. It is filed as cell-based. To be noted: Homo sapiens, single dose 10 µM, '-' = no inhibition, read-out: % Growth Inhibition. The method, boiled down: as §1
On to `COc1ccc(-c2cc(-c3ccc(Cl)cc3)nc(SC)n2)cc1OC` [Compound 23, 4-(4-Chlorophenyl)-6-(3,4-dimethoxyphenyl)-2-(methylthio)pyrimidine], for which the inhibition at 10 µM was found to be 31.2%.

The next test relates to HCC-2998. Description: NCI-60 single-dose screen. It is filed as cell-based. Conditions: Homo sapiens, single dose 10 µM, '-' = no inhibition, read-out: % Growth Inhibition. The method, boiled down: as §1
`COc1ccc(-c2cc(-c3ccc(Cl)cc3)nc(SC)n2)cc1OC` [Compound 23, 4-(4-Chlorophenyl)-6-(3,4-dimethoxyphenyl)-2-(methylthio)pyrimidine]: the inhibition at 10 µM was under 0%.

Another test relates to T-47D. Description: NCI-60 single-dose screen. Format: cell-based. Conditions: Homo sapiens, T47D, single dose 10 µM, '-' = no inhibition, read-out: % Growth Inhibition. In short, it runs like this:
as §1
On to `COc1ccc(-c2cc(-c3ccc(Cl)cc3)nc(SC)n2)cc1OC` [Compound 23, 4-(4-Chlorophenyl)-6-(3,4-dimethoxyphenyl)-2-(methylthio)pyrimidine], for which the inhibition at 10 µM was 25.5%.

The subject of another test is MCF7. Description: NCI-60 single-dose screen. To be noted: Homo sapiens, single dose 10 µM, '-' = no inhibition, read-out: % Growth Inhibition. It is filed as cell-based. In short, it runs like this: as §1
As to `COc1ccc(-c2cc(-c3ccc(Cl)cc3)nc(SC)n2)cc1OC` [Compound 23, 4-(4-Chlorophenyl)-6-(3,4-dimethoxyphenyl)-2-(methylthio)pyrimidine], the inhibition at 10 µM is 23.9%.

The next test concerns SK-OV-3. Description: NCI-60 single-dose screen. Format: cell-based. To be noted: Homo sapiens, single dose 10 µM, '-' = no inhibition, read-out: % Growth Inhibition. In short, it runs like this: as §1
With `COc1ccc(-c2cc(-c3ccc(Cl)cc3)nc(SC)n2)cc1OC` [Compound 23, 4-(4-Chlorophenyl)-6-(3,4-dimethoxyphenyl)-2-(methylthio)pyrimidine], the inhibition at 10 µM was found to be 2.94%.

A further test has as its system RXF 393. Description: NCI-60 single-dose screen. It is filed as cell-based. To be noted: Homo sapiens, single dose 10 µM, '-' = no inhibition, read-out: % Growth Inhibition. The method, boiled down: as §1
For the compound `COc1ccc(-c2cc(-c3ccc(Cl)cc3)nc(SC)n2)cc1OC` [Compound 23, 4-(4-Chlorophenyl)-6-(3,4-dimethoxyphenyl)-2-(methylthio)pyrimidine], the inhibition at 10 µM was under 0%.

Another test concerns HT29. Description: NCI-60 single-dose screen. To be noted: Homo sapiens, HT-29, single dose 10 µM, '-' = no inhibition, read-out: % Growth Inhibition. It is filed as cell-based. In short, it runs like this:
as §1
Take `COc1ccc(-c2cc(-c3ccc(Cl)cc3)nc(SC)n2)cc1OC` [Compound 23, 4-(4-Chlorophenyl)-6-(3,4-dimethoxyphenyl)-2-(methylthio)pyrimidine]: the inhibition at 10 µM was 26.4%.

In the next test the test system is SK-MEL-2. Description: NCI-60 single-dose screen. Format: cell-based. Conditions: Homo sapiens, single dose 10 µM, '-' = no inhibition, read-out: % Growth Inhibition. The method, boiled down:
as §1
In the case of `COc1ccc(-c2cc(-c3ccc(Cl)cc3)nc(SC)n2)cc1OC` [Compound 23, 4-(4-Chlorophenyl)-6-(3,4-dimethoxyphenyl)-2-(methylthio)pyrimidine], the inhibition at 10 µM came out at 8.95%.

In a further test the test system is TK-10. Description: NCI-60 single-dose screen. Conditions: Homo sapiens, single dose 10 µM, '-' = no inhibition, read-out: % Growth Inhibition. Format: cell-based. The method, boiled down: as §1
Turning to `COc1ccc(-c2cc(-c3ccc(Cl)cc3)nc(SC)n2)cc1OC` [Compound 23, 4-(4-Chlorophenyl)-6-(3,4-dimethoxyphenyl)-2-(methylthio)pyrimidine], the inhibition at 10 µM is under 0%.

Another test concerns HCT-15. Put plainly: NCI-60 single-dose screen. It is filed as cell-based. Conditions: Homo sapiens, single dose 10 µM, '-' = no inhibition, read-out: % Growth Inhibition. In short, it runs like this:
as §1
On to `COc1ccc(-c2cc(-c3ccc(Cl)cc3)nc(SC)n2)cc1OC` [Compound 23, 4-(4-Chlorophenyl)-6-(3,4-dimethoxyphenyl)-2-(methylthio)pyrimidine], for which the inhibition at 10 µM stood at 28%.

The next test relates to UACC-62. Put plainly: NCI-60 single-dose screen. It is filed as cell-based. Conditions: Homo sapiens, single dose 10 µM, '-' = no inhibition, read-out: % Growth Inhibition. In short, it runs like this:
as §1
Consider `COc1ccc(-c2cc(-c3ccc(Cl)cc3)nc(SC)n2)cc1OC` [Compound 23, 4-(4-Chlorophenyl)-6-(3,4-dimethoxyphenyl)-2-(methylthio)pyrimidine], for which the inhibition at 10 µM is under 0%.

The test system of the next test is UO-31. Description: NCI-60 single-dose screen. Format: cell-based. To be noted: Homo sapiens, single dose 10 µM, '-' = no inhibition, read-out: % Growth Inhibition. In short, it runs like this: as §1
`COc1ccc(-c2cc(-c3ccc(Cl)cc3)nc(SC)n2)cc1OC` [Compound 23, 4-(4-Chlorophenyl)-6-(3,4-dimethoxyphenyl)-2-(methylthio)pyrimidine]: the inhibition at 10 µM was 22.9%.

In another test the test system is NCI-H322M. Put plainly: NCI-60 single-dose screen. Format: cell-based. To be noted: Homo sapiens, single dose 10 µM, '-' = no inhibition, read-out: % Growth Inhibition. The method, boiled down: as §1
In the case of `COc1ccc(-c2cc(-c3ccc(Cl)cc3)nc(SC)n2)cc1OC` [Compound 23, 4-(4-Chlorophenyl)-6-(3,4-dimethoxyphenyl)-2-(methylthio)pyrimidine], the inhibition at 10 µM is under 0%.

A further test concerns UACC-257. Put plainly: NCI-60 single-dose screen. It is filed as cell-based. To be noted: Homo sapiens, single dose 10 µM, '-' = no inhibition, read-out: % Growth Inhibition. In short, it runs like this: as §1
`COc1ccc(-c2cc(-c3ccc(Cl)cc3)nc(SC)n2)cc1OC` [Compound 23, 4-(4-Chlorophenyl)-6-(3,4-dimethoxyphenyl)-2-(methylthio)pyrimidine]: the inhibition at 10 µM came out at 10%.

The subject of another test is RPMI-8226. Description: NCI-60 single-dose screen. Format: cell-based. To be noted: Homo sapiens, single dose 10 µM, '-' = no inhibition, read-out: % Growth Inhibition. The method, boiled down: as §1
On to `COc1ccc(-c2cc(-c3ccc(Cl)cc3)nc(SC)n2)cc1OC` [Compound 23, 4-(4-Chlorophenyl)-6-(3,4-dimethoxyphenyl)-2-(methylthio)pyrimidine], for which the inhibition at 10 µM was 20.1%.

In another test the test system is SR. Put plainly: NCI-60 single-dose screen. Format: cell-based. To be noted: Homo sapiens, single dose 10 µM, '-' = no inhibition, read-out: % Growth Inhibition. In short, it runs like this:
as §1
As for `COc1ccc(-c2cc(-c3ccc(Cl)cc3)nc(SC)n2)cc1OC` [Compound 23, 4-(4-Chlorophenyl)-6-(3,4-dimethoxyphenyl)-2-(methylthio)pyrimidine], the inhibition at 10 µM was determined as 34%.

The next test has as its system MDA-MB-468. Description: NCI-60 single-dose screen. Format: cell-based. Conditions: Homo sapiens, single dose 10 µM, '-' = no inhibition, read-out: % Growth Inhibition. The method, boiled down: as §1
Take `COc1ccc(-c2cc(-c3ccc(Cl)cc3)nc(SC)n2)cc1OC` [Compound 23, 4-(4-Chlorophenyl)-6-(3,4-dimethoxyphenyl)-2-(methylthio)pyrimidine]: the inhibition at 10 µM is 6.77%.
